According to patent publication US6355799B1, “Substituted benzene compounds, process for their preparation, and herbicidal and defoliant compositions containing them” (ISK Americas Incorporated, priority 1997, dated 2002):

What was measured:
Assay type in all cases: in vivo
[1] = tested on: redroot pigweed (Amaranthus retroflexus, AMARE); test: Pre-emerge test, greenhouse herbicide activity screening; settings: pre-emerge, phytotoxicity rating 0-100 at 14 days after application
Summary of the method: (§1)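 Rating: 0–100 visual injury, 14 DAA. Application: acetone, 187 l/ha, 15–1000 g ai/ha, flat-fan track sprayer with nozzle 40–45 cm above soil or canopy. Post-emerge runs used 0.25% v/v surfactant on 2–3 leaf plants.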

[2] = tested on: barnyardgrass (Echinochloa crus-galli, ECHCG); test: as above; settings: pre-emerge, phytotoxicity rating 0-100 at 14 days after application
Summary of the method: as §1

[3] = tested on: green foxtail (Setaria viridis, SETVI); test: as above; settings: pre-emerge, phytotoxicity rating 0-100 at 14 days after application
Summary of the method: as §1

[4] = tested on: ivyleaf morningglory (Ipomoea hederacea, IPOHE); test: as above; settings: pre-emerge, phytotoxicity rating 0-100 at 14 days after application
Summary of the method: as §1

[5] = tested on: johnsongrass (Sorghum halepense, SORHA); test: as above; settings: pre-emerge, phytotoxicity rating 0-100 at 14 days after application
Summary of the method: as §1

[6] = tested on: lambsquarters (Chenopodium album, CHEAL); test: as above; settings: pre-emerge, phytotoxicity rating 0-100 at 14 days after application
Summary of the method: as §1

[7] = tested on: large crabgrass (Digitaria sanguinalis, DIGSA); test: as above; settings: pre-emerge, phytotoxicity rating 0-100 at 14 days after application
Summary of the method: as §1

[8] = tested on: sicklepod (Cassia obtusifolia, CASOB); test: as above; settings: pre-emerge, phytotoxicity rating 0-100 at 14 days after application
Summary of the method: as §1

[9] = tested on: velvetleaf (Abutilon theophrasti, ABUTH); test: as above; settings: pre-emerge, phytotoxicity rating 0-100 at 14 days after application
Summary of the method: as §1

[10] = tested on: field corn (Zea mays L., var. Dekalb 535, CORN); test: Pre-emerge test, crop safety; settings: crop damage, pre-emerge, phytotoxicity rating 0-100 at 14 days after application
Summary of the method: (§2)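 Fourteen days after spraying, crop and weed injury was graded visually from 0, no effect, to 100, every plant dead. Test substances were dissolved in acetone and applied at 15–1000 g ai/ha with a flat-fan nozzle. Application was either pre-emergence, one day after sowing, or post-emergence at the 2–3 leaf stage.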

[11] = tested on: upland rice (Oryza sp., var. Tebonnet, RICE); test: Pre-emerge test, crop safety; settings: crop damage, pre-emerge, phytotoxicity rating 0-100 at 14 days after application
Summary of the method: as §2

[12] = tested on: barnyardgrass (Echinochloa crus-galli, ECHCG); test: Post-emerge test, greenhouse herbicide activity screening; settings: post-emerge, phytotoxicity rating 0-100 at 14 days after application
Summary of the method: (§3)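 Plants grown in 10 cm pots of sandy loam mix received acetone-dissolved compounds through a moving flat-fan nozzle. Doses ranged from 15 to 1000 g ai/ha. Pre-emerge pots were seeded one day earlier, post-emerge pots 8–21 days earlier. Fourteen days on, each pot was graded 0–100 for damage.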

[13] = tested on: green foxtail (Setaria viridis, SETVI); test: as above; settings: post-emerge, phytotoxicity rating 0-100 at 14 days after application
Summary of the method: as §3

[14] = tested on: ivyleaf morningglory (Ipomoea hederacea, IPOHE); test: as above; settings: post-emerge, phytotoxicity rating 0-100 at 14 days after application
Summary of the method: as §3

[15] = tested on: johnsongrass (Sorghum halepense, SORHA); test: as above; settings: post-emerge, phytotoxicity rating 0-100 at 14 days after application
Summary of the method: as §3

[16] = tested on: lambsquarters (Chenopodium album, CHEAL); test: as above; settings: post-emerge, phytotoxicity rating 0-100 at 14 days after application
Summary of the method: as §3

[17] = tested on: large crabgrass (Digitaria sanguinalis, DIGSA); test: as above; settings: post-emerge, phytotoxicity rating 0-100 at 14 days after application
Summary of the method: as §3

[18] = tested on: redroot pigweed (Amaranthus retroflexus, AMARE); test: as above; settings: post-emerge, phytotoxicity rating 0-100 at 14 days after application
Summary of the method: as §3

[19] = tested on: sicklepod (Cassia obtusifolia, CASOB); test: as above; settings: post-emerge, phytotoxicity rating 0-100 at 14 days after application
Summary of the method: as §3

[20] = tested on: velvetleaf (Abutilon theophrasti, ABUTH); test: as above; settings: post-emerge, phytotoxicity rating 0-100 at 14 days after application
Summary of the method: as §3

[21] = tested on: field corn (Zea mays L., var. Dekalb 535, CORN); test: Post-emerge test, crop safety; settings: post-emerge, crop damage rating 0-100 at 14 days after application
Summary of the method: as §3

[22] = tested on: upland rice (Oryza sp., var. Tebonnet, RICE); test: Post-emerge test, crop safety; settings: post-emerge, crop damage rating 0-100 at 14 days after application
Summary of the method: as §3

## COc1ccccc1COC(=O)Nc1c(C)c(Cl)cc(F)c1-n1c(=O)cc(C(F)(F)F)n(C)c1=O [4-58]
[1]; rate 63 g ai/ha
  Pre-emerge Herbicidal Activity AMARE: 100
[1]; rate 250 g ai/ha
  Pre-emerge Herbicidal Activity AMARE: 100
[2]; rate 63 g ai/ha
  Pre-emerge Herbicidal Activity ECHCG: 30
[2]; rate 250 g ai/ha
  Pre-emerge Herbicidal Activity ECHCG: 70
[3]; rate 63 g ai/ha
  Pre-emerge Herbicidal Activity SETVI: 80
[3]; rate 250 g ai/ha
  Pre-emerge Herbicidal Activity SETVI: 100
[4]; rate 63 g ai/ha
  Pre-emerge Herbicidal Activity IPOHE: 30
[4]; rate 250 g ai/ha
  Pre-emerge Herbicidal Activity IPOHE: 100
[5]; rate 63 g ai/ha
  Pre-emerge Herbicidal Activity SORHA: 20
[5]; rate 250 g ai/ha
  Pre-emerge Herbicidal Activity SORHA: 60
[6]; rate 63 g ai/ha
  Pre-emerge Herbicidal Activity CHEAL: 100
[6]; rate 250 g ai/ha
  Pre-emerge Herbicidal Activity CHEAL: 100
[7]; rate 63 g ai/ha
  Pre-emerge Herbicidal Activity DIGSA: 30
[7]; rate 250 g ai/ha
  Pre-emerge Herbicidal Activity DIGSA: 100
[8]; rate 63 g ai/ha
  Pre-emerge Herbicidal Activity CASOB: 70
[8]; rate 250 g ai/ha
  Pre-emerge Herbicidal Activity CASOB: 100
[9]; rate 63 g ai/ha
  Pre-emerge Herbicidal Activity ABUTH: 100
[9]; rate 250 g ai/ha
  Pre-emerge Herbicidal Activity ABUTH: 100
[10]; rate 63 g ai/ha
  Pre-emerge Herbicidal Activity CORN: 0
[10]; rate 250 g ai/ha
  Pre-emerge Herbicidal Activity CORN: 25
[11]; rate 63 g ai/ha
  Pre-emerge Herbicidal Activity RICE: 30
[11]; rate 250 g ai/ha
  Pre-emerge Herbicidal Activity RICE: 70
[12]; 63 g ai/ha
  Post-emerge Herbicidal Activity ECHCG: 30
[12]; 250 g ai/ha
  Post-emerge Herbicidal Activity ECHCG: 40
[13]; 63 g ai/ha
  Post-emerge Herbicidal Activity SETVI: 50
[13]; 250 g ai/ha
  Post-emerge Herbicidal Activity SETVI: 90
[14]; 63 g ai/ha
  Post-emerge Herbicidal Activity IPOHE: 100
[14]; 250 g ai/ha
  Post-emerge Herbicidal Activity IPOHE: 100
[15]; 63 g ai/ha
  Post-emerge Herbicidal Activity SORHA: 30
[15]; 250 g ai/ha
  Post-emerge Herbicidal Activity SORHA: 50
[16]; 63 g ai/ha
  Post-emerge Herbicidal Activity CHEAL: 100
[16]; 250 g ai/ha
  Post-emerge Herbicidal Activity CHEAL: 100
[17]; 63 g ai/ha
  Post-emerge Herbicidal Activity DIGSA: 20
[17]; 250 g ai/ha
  Post-emerge Herbicidal Activity DIGSA: 60
[18]; 63 g ai/ha
  Post-emerge Herbicidal Activity AMARE: 100
[18]; 250 g ai/ha
  Post-emerge Herbicidal Activity AMARE: 100
[19]; 63 g ai/ha
  Post-emerge Herbicidal Activity CASOB: 90
[19]; 250 g ai/ha
  Post-emerge Herbicidal Activity CASOB: 100
[20]; 63 g ai/ha
  Post-emerge Herbicidal Activity ABUTH: 100
[20]; 250 g ai/ha
  Post-emerge Herbicidal Activity ABUTH: 100
[21]; 63 g ai/ha
  Post-emerge Herbicidal Activity CORN: 30
[21]; 250 g ai/ha
  Post-emerge Herbicidal Activity CORN: 70
[22]; 63 g ai/ha
  Post-emerge Herbicidal Activity RICE: 60
[22]; 250 g ai/ha
  Post-emerge Herbicidal Activity RICE: 75
